Data reported in patent publication US12331042B2, “Compounds suitable for the treatment and prophylaxis of muscle wasting and other conditions” (priority 2019, dated 2025).
“Also recorded” adds a separate entry of the source.

Assays:
[1] = test system: C57BL/6N mice inoculated with B16F10 melanoma cells; experiment: Tumor mouse model (B16F10 melanoma); type: in vivo; conditions: 0.1 weight-% in chow, vs tumor mice
From the text: 8 weeks old female C57BL/6N mice were inoculated with B16F10 melanoma cells (9×10^5 cells) or saline (sham, n=10). Within the first 3 days after tumor inoculation, the B16F10 mice as well as the sham mice received regular chow. Then the B16F10 mice were randomly divided in three groups, where the first group received MyoMed-946 chow (Tumor+MyoMed-946, n=10), the second group received MyoMed-205 chow (Tumor+MyoMed-205, n=10) and the third group received an identical chow but without the addition of the selected compounds (Tumor, n=10). The compound concentration in the chow was 0.1 weight-%, resulting in a daily compound intake per mouse of about 3 mg. Also the sham group was fed with an identical chow but without the addition of the selected compound. Wire-hang tests (muscle function) were performed with each mouse 9, 16 and 23 days after tumor inoculation. For this purpose, a standard wire hang construction was used with a wire (length: of 40 cm, diameter: 2.5 mm) at a height of 70 cm above the floor. Under the center of the wire a large box with sawdust was placed. For testing, the mouse was hung to the wire with the two limbs and hang time was recorded. Each animal had three attempts for 180 sec. max each. After three attempts, the maximal holding impulse was calculated (hanging time×body weight).
Mice were sacrificed 25 days after tumor inoculation. […]

[2] = test system: MAFbx, MuRF1, CARP, BAX, eIF2B-delta expression; experiment: Western blot analysis of TA muscle, MCT mice; type: in vivo
From the text: The Western blot analyses consisted of frozen TA muscle samples being homogenized in RIPA buffer (50 mmol/L Tris, 150 mmol/L sodium chloride, 1 mmol/L EDTA, 1% NP-40, 0.25% sodium-deoxycholate, 0.1% SDS, 1% Triton X-100; pH 7.4) or relax buffer (90 mmol/L HEPES, 126 mmol/L potassium chloride, 1 mmol/L MgCl, 50 mmol/L EGTA, 8 mmol/L ATP, 10 mmol/1 Creatinephosphate; pH 7.4) containing a protease inhibitor mix (Inhibitor mix M, Serva, Heidelberg, Germany), sonicated, and centrifuged at 16,000×g for 5 min. Protein concentration of the supernatant was determined (BCA assay, Pierce, Bonn, Germany) and aliquots (5-20 μg) were separated by SDS-polyacrylamide gel electrophoresis. Proteins were transferred to a polyvinylidene fluoride membrane (PVDF) and incubated overnight at 4° C. with the following primary antibodies: MAFbx ( 1/2000, Eurogentec, Seraing, Belgium), MuRF1 ( 1/1000, Myomedix Ltd., Neckargemünd, Germany), CARP ( 1/500, Myomedix Ltd., Neckargemünd, Germany), BAX ( 1/1000; Abcam, Cambridge, UK), and eIF2B-delta ( 1/200; Santa Cruz Biotechnolgy, Santa Cruz, USA). Membranes were subsequently incubated with a horseradish peroxidase-conjugated secondary antibody and specific bands visualized by enzymatic chemiluminescence (Super Signal West Pico, Thermo Fisher Scientific Inc., Bonn, Germany) and densitometry quantified using a 1D scan software package (Scanalytics Inc., Rockville, USA). Blots were then normalized to the loading control GAPDH ( 1/30000; HyTest Ltd, Turku, Finland). All data are presented as fold change relative to sham.

[3] = test system: diaphragm fiber bundle of MCT mice; experiment: Contractile function of diaphragm fiber bundles, MCT mice; type: in vivo; conditions: MCT mice fed compound vs MCT; MCT impairs by around 20% vs sham
Description: To provide a direct functional assessment, the contractility in skeletal muscle fiber bundles, i.e. fibre bundle from the diaphragm of MCT mice and CIF mice, was measured as follows. A fiber bundle from the diaphragm was isolated to allow in vitro contractile function to be assessed using a length-controlled lever system (301B, Aurora Scientific Inc., Aurora, Canada), as described by Bowen et al., FASEB J, 2017, 31. Briefly, a muscle bundle was mounted vertically in a buffer-filled organ bath (˜22° C.), set at optimal length, and after 15 min was stimulated over a force-frequency protocol between 1-300 Hz (600 mA; 500 ms train duration; 0.25 ms pulse width). […] Shortening velocity was determined 10 ms after the first change in length and on the linear section of the transient (DMA software, Aurora Scientific). Force (N) was normalized to muscle cross-sectional area (CSA; cm^2) by dividing muscle mass (g) by the product of Lo (cm) and estimated muscle density (1.06), which allowed specific force in N/cm^2 to be calculated. Shortening velocity was normalized to optimal muscle length (in Lo/s), while power was calculated for each load as the product of shortening velocity and specific force (in W/cm^2).

[4] = test system: C2C12 myotubes (myocytes); experiment: Cytotoxicity, LDH release in cultured myotubes (myocytes); type: cell-based, Murine; conditions: increasing concentrations, 24 h
Description: Murine C2C12 myoblasts (CRL-1772, ATCC) were cultured in DMEM (Lonza; Basel, Switzerland) supplemented with 10% fetal calf serum (FCS; Gibco®Invitrogen, Carlsbad, CA). For induction of differentiation into myotubes, subconfluent cultures were switched to DMEM containing 2% horse serum (Sigma-Aldrich; Seelze, Germany). Myotubes were subsequently pre-treated for 2 h with increasing compound concentrations (0.1 to 10 μmol/L, dissolved in DMSO) or with an equal volume of DMSO before treatment for 24 h with 10 μmol/L dexamethasone (DEX; Sigma-Aldrich; Seelze, Germany). Myotube diameter was then evaluated by image analysis software (Analysis 3.0, Olympus Soft Imaging Solutions GmbH, Munster, Germany). To determine cytotoxicity of selected compounds, myoblasts or myotubes were incubated with increasing concentrations for 24 h. Subsequently, the concentration of lactate dehydrogenase (LDH) activity was quantified in the cell culture supernatant as a measure for cell destruction as described in Bellocci et al., Anal Biochem, 2008, 374, 48-55.

Cc1cc(=O)oc2cc(OCc3ccc(C(=O)OCC(=O)NC(=O)NCc4ccco4)cc3)ccc12 [MyoMed-946, [2-(2-furylmethylcarbamoylamino)-2-oxo-ethyl] 4-[(4-methyl-2-oxo-chromen-7-yl)oxymethyl]benzoate]
tumor induced skeletal muscle atrophy (TA muscle weight) ([1]; 25 days after inoculation, at least to certain extent): attenuated
loss of muscle function in wire-hang test ([1]; 9, 16 and 23 days after inoculation): attenuated; also recorded: significantly attenuates the loss of muscle function
increase in CARP expression ([2]; MCT+compound vs MCT): attenuated; also recorded: abolished
increased protein expression of MuRF1 ([2]; MCT+compound vs MCT): attenuated; also recorded: prevented
protein expression of MAFBx ([2]; MCT+compound vs MCT): No changes are detected; also recorded: no effects were observed
expression of eIF2B (delta subunit) ([2]; MCT+compound vs MCT, confirmed by immunoblotting): upregulation
expression of BAX ([2]; MCT+compound, upregulated in MCT vs sham): normalized
contractile dysfunction of the diaphragm (shortening velocity and power) [3]: essentially prevented
toxicity (LDH release) [4]: low toxicity
